Measurements reported in patent US20260216175A1, “COMPLEMENT INHIBITION” (Apellis Pharmaceuticals, Inc., priority 2023, published 2026).

system: complement activation; assay: not given; details: fold activity relative to compstatin amidated at the C-terminus; based on published data and assays (WO2004/026328, WO2007044668, Mallik 2005; Katragadda 2006); cited from earlier work

Molecule | Activity over compstatin [× more]
Ac-ICV(2-IgI)QDWGAHRCT-COOH [Ac-V42IgI/H9A —OH] | 37
Ac-ICVDhtQDWGAHRCT-COOH [Ac-V4Dht/H9A —OH] | 5
Ac-ICVYQDWGAHRCT-CONH2 [Ac-V4Y/H9A] | 14
Ac-ICV(2-Nal)QDWGAHRCT-COOH [Ac V4(2-Nal)/H9A —OH] | 38
Ac-ICV(Bpa)QDWGAHRCT-CONH2 [Ac-V4(Bpa)/H9A] | 86
Ac-ICV(2-IgI)QDWGAHRCT-CONH2 [Ac-V42IgI/H9A] | 39
Ac-ICV(2-Nal)QDWGAHRCT-CONH2 [Ac-V4(2-Nal)/H9A] | 99
Ac-ICVWQD(5fW)GAHRCT-CONH2 [Ac-V4W/W7(5fW)/H9A] | 121
Ac-ICVWQDWGAHRCdT-COOH [Ac-V4W/H9A/T13dT —OH] | 55
H-GICV(6fW)QD(6fW)GAHRCTN-COOH [+G/V4(6fW)/W7(6fW)H9A + N—OH] | 126
Ac-ICVWQDWGAHRCT-CONH2 (Ac-ICVWQDWGAHRCT-NH2; cysteine pairing not given here) [Ac-V4W/H9A, compstatin analog] | 45
Ac-ICV(Bpa)QDWGAHRCT-COOH [Ac-V4(Bpa)/H9A —OH] | 49
Ac-ICV(1-Nal)QDWGAHRCT-COOH [Ac V4(1-Nal)/H9A —OH] | 30
Ac-ICVVQDWGHHRCT-CONH2 [Ac-compstatin] | 3

system: not listed separately; assay: biological activity of enantiomers (assay not specified); details: first eluting vs second eluting enantiomer

Molecule | biological activity, comparison of enantiomers
COc1cc(C)c2[nH]ccc2c1CN1CCN(CC(F)F)CC1c1ccc(C(=O)O)c(O)c1 (single isomer, unassigned) [Example 68, 4-(4-(2,2-difluoroethyl)-1-((5-methoxy-7-methyl-1H-indol-4-yl)methyl)piperazin-2-yl)-2-hydroxybenzoic acid] | more active enantiomer
